Structures are written as SMILES. In brackets after ≈: the same amount, converted by molar mass.

In the experiment the test system is Mycobacterium tuberculosis variant bovis BCG. As to the kind of experiment: microbe, parasite or virus in culture. In kind it is functional.
As to `NC(=O)c1nnc(Sc2ccnc(N3CCN(c4ccncc4)CC3)n2)n1-c1ccccc1`, the MIC90 turned out to be 6.3 µM (≈ 2.9 µg/mL). Next, `Br.Cc1ccccc1OCCCON1C(=N)N=C(N)NC1(C)C`: 7 µM; `c1cc(Oc2ccnc(N3CCC4(CCNC4)CC3)n2)c2cc[nH]c2c1`: 7.5 µM (≈ 2.62 µg/mL). Next, `Cc1nc2ccccn2c1C(=O)NCc1ccc(Cl)cc1`: 2 µM (≈ 0.6 µg/mL).

In turn, `c1ccc(CCNc2cc(-c3ccccc3)nc3nncn23)cc1` returned an MIC90 of 8.1 µM (≈ 2.55 µg/mL). Regarding `O=C(Nc1nnc(-c2ccccc2)o1)c1ccc(F)cc1`, the MIC90 was found to be 5.8 µM (≈ 1.64 µg/mL). The compound `O=C(c1ccc(-c2cccc(OCCN(CCO)C3CCCCC3)c2)cc1)N1CCCC1` yielded an MIC90 of 6.5 µM (≈ 2.84 µg/mL). On to `CC1Sc2ccc(C(=O)N3CCCCC3c3nc4ccccc4s3)cc2NC1=O` (stereo not given), for which the MIC90 is 9.8 µM (≈ 4.15 µg/mL). The same measure for `Cc1ccc(C(=O)N2N=C(C(F)(F)F)CC2(O)c2ccncc2)cc1` (stereo not given): 4.4 µM (≈ 1.54 µg/mL). Take `COc1ccc(-c2cc(NC(=O)c3ccc(F)cc3Cl)ccc2OC)cc1`: the MIC90 amounted to 8.2 µM (≈ 3.16 µg/mL). Consider `CSc1cccc(C(=O)Nc2nc(-c3ccccn3)cs2)c1`, for which the MIC90 came out at 4.6 µM (≈ 1.51 µg/mL).

For the compound `O=C(NC1CCSc2ccccc21)c1ccc(S(=O)(=O)N2CCOCC2)cc1` (stereo not given), the MIC90 turned out to be 3.3 µM (≈ 1.38 µg/mL).

`Cc1ccc(-n2nc(C)c3c(N4CCCNCC4)nc(C4CC4)nc32)cc1` came in with an MIC90 of 0.8 µM (≈ 0.29 µg/mL). `c1coc(-c2nnc(Sc3ccnc(N4CCN(c5ccncc5)CC4)n3)n2CCN2CCOCC2)c1` returned an MIC90 of 5.3 µM (≈ 2.75 µg/mL). `CCc1c(C)nc(-c2cccc(F)c2)nc1N1CCNCC1` showed an MIC90 of 7.6 µM (≈ 2.28 µg/mL).

`Cc1ccc(C)c(-c2nnc(NC(=O)c3cccc(C(F)(F)F)c3)o2)c1` registered an MIC90 of 4.1 µM (≈ 1.48 µg/mL). `Cc1cnc(CNCc2ccc(-c3ccc(C(=O)NCCc4ccccc4)c(F)c3)cc2)cn1`: the MIC90 is 5.5 µM (≈ 2.5 µg/mL). `O=C(Nc1nc(-c2ccccn2)cs1)c1cccc(-n2cnnn2)c1` registered an MIC90 of 8.5 µM (≈ 2.97 µg/mL).

As for `CC(c1nc2ccccc2s1)N(C)C(=O)c1ccc2c(c1)CC(c1ccccc1)OC2=O` (stereo not given), the MIC90 was 1.6 µM (≈ 0.708 µg/mL). The same measure for `CC(C)NCc1ccc(-c2ccc(NS(=O)(=O)c3ccc(F)cc3)cc2)cc1`: 3.6 µM (≈ 1.43 µg/mL). As for `O=C(NNC(=O)c1cc2cc([N+](=O)[O-])ccc2s1)c1cccs1`, the MIC90 turned out to be 9.2 µM (≈ 3.2 µg/mL). Take `CC1(C(=O)Nc2cccc3cccnc23)CCN1CC1CC1` (stereo not given): the MIC90 is 4.6 µM (≈ 1.36 µg/mL).

`Cc1ccc2c(OC3CCNCC3)cccc2n1` yielded an MIC90 of 5.9 µM (≈ 1.43 µg/mL). As to `O=C1N(C2CCCCC2)CCS1(=O)=O`, the MIC90 turned out to be 3.1 µM (≈ 0.674 µg/mL).

Consider `O=C(Nc1ccc2c(c1)OCC(=O)N2Cc1ccccc1Cl)NC1CCCCC1`, for which the MIC90 is 5.7 µM (≈ 2.36 µg/mL).

Consider `O=C(NC(Cc1ccccc1)C(=O)Nc1ccccc1N1CCOCC1)c1cccs1` (stereo not given), for which the MIC90 amounted to 1.8 µM (≈ 0.784 µg/mL). `Br.CC1(C)N=C(N)N=C(N)N1OCCc1ccc2ccccc2c1` yielded an MIC90 of 8.8 µM.

For the compound `Nc1nc(SCc2cccc(F)c2F)nc2[nH]c(=O)cnc12`, the MIC90 was determined as 4.4 µM (≈ 1.41 µg/mL). Compound `Cc1cc(NC(=O)c2cc(Br)ccc2Cl)n(-c2nc(C)c(C)c(=O)[nH]2)n1` gave an MIC90 of 5.3 µM (≈ 2.31 µg/mL). The same measure for `FC(F)(F)c1ccccc1C1CCN(Cc2[nH]nc3ccccc23)CC1`: 6.3 µM (≈ 2.26 µg/mL); for `Cc1sc2nc(C3CC3)n(C3CCN(CC(=O)N4CCCC4)CC3)c(=O)c2c1C`: 5 µM (≈ 2.07 µg/mL); for `COc1ccc(-c2cc3nccc(C4CCCNC4)n3n2)cc1` (stereo not given): 6.5 µM (≈ 2 µg/mL). In the case of `Cc1ccc(C(=O)Nc2nc(-c3ccccn3)cs2)s1`, the MIC90 worked out at 3.7 µM (≈ 1.12 µg/mL). On to `COc1ccc(-c2nc(C(=O)N3CCCCC3c3nc4ccccc4s3)cs2)cc1` (stereo not given), for which the MIC90 worked out at 4.8 µM (≈ 2.09 µg/mL).

Compound `Cc1ccc2nc(C(F)(F)F)c(C(=O)NCc3cccc(OC(C)C)c3)n2c1` returned an MIC90 of 1.9 µM (≈ 0.744 µg/mL).

Take `Cc1ccc(-c2nnc(NC(=O)c3ccc(C#N)cc3)o2)cc1C`: the MIC90 was found to be 3.7 µM (≈ 1.18 µg/mL). With `CSc1ncc(C(=O)Nc2nc(-c3ccc(Cl)cc3)cs2)cn1`, the MIC90 is 3.3 µM (≈ 1.2 µg/mL). For `COc1ccc(Nc2ccccc2N)cc1`, the MIC90 came to 1.1 µM (≈ 0.236 µg/mL). `C=CCn1c(Sc2ccnc(N3CCN(c4ccncc4)CC3)n2)nnc1C(N)=O` had an MIC90 of 3.3 µM (≈ 1.4 µg/mL). Consider `CCOc1cc(OC)c(C(=O)Nc2cccc3c2CCN(C)C3C)cc1Cl` (stereo not given), for which the MIC90 came out at 5.6 µM (≈ 2.18 µg/mL).

The values above are taken from ChEMBL document CHEMBL2095176, “GSK Tuberculosis Screening Data”.
